One assay deals with S. aureus. As to the kind of experiment: Microdilution antimicrobial susceptibility test (MIC). In kind it is cell-based. The following applies: Staphylococcus aureus; MIC, average; read-out: S. aureus (μg/ml) avg. On the procedure: Stock solutions of tested compounds were prepared in N,N-dimethylformamide (DMF) at a concentration of 5 mg/mL. Working solutions of the tested compounds were then prepared from the stock solutions, in Mueller-Hinton broth (MHB) with a starting concentration of 64 μg/mL.
Bacterial inocula were prepared from overnight culture (i.e., one fresh colony from agar plate in 5 ml MHB; H. influenzae was grown in MHB with the addition of yeast extract, haematin, and NAD), centrifuged 2×5 min/3000 rpm (for S. pneumoniae and H. influenzae, 2×10 min/3000 rpm), and dispensed in 5 ml of fresh MHB each time, such that the bacterial suspension is diluted to obtain 100 colony forming units (cfu) in a microplate well (100 μl total volume).
Microplate wells were filled with two-fold dilutions of test compound (50 μl), starting with 64 μg/ml. Wells were then filled with 50 μl of bacterial inoculum (final volume: 100 μl/well). The plates were incubated at 37° C. for 18-24 hours (S. pneumoniae was grown in a CO2-enriched atmosphere).
In general terms: Dilution methods test growth across graded concentrations, often in twofold steps.

The next assay deals with T1, bacterial DHFR (bDHFR) (Escherichia coli, UniProt P0ABQ4).
T1 construct: gift of Eric Brown, McMaster University
As to the kind of experiment: DHFR enzyme assay, Ki determination, bacterial DHFR. In kind it is biochemical, E. coli. On the procedure:
Human and Bacterial DHFR: E. coli DHFR was kindly provided by Eric Brown of MacMaster University.
Dihydrofolic acid and NADPH were purchased from Sigma. Enzyme assays were adapted for microtitre format from a previously published procedure (2, 3). All assays were performed in a 250 μl volume in 96-well microtitre plates. Typical assays consisted of 20 nM DHFR (human or E. coli), 100 μM NADPH, and 50 μM dihydrofolic acid in 100 mM HEPES pH 8, 10 mM KCl, and 10 mM MgCl2. The assay was monitored spectrophotometrically for the conversion of NADPH to NADP+, which results in a decrease in absorbance at 340 nm.
The reaction was initiated by the addition of 125 μl of 100 μM dihydrofolic acid. The final concentrations in the assay were 20 nM DHFR, 100 μM NADPH, 50 μM dihydrofolic acid, and a range of 500 μM to 20 nM inhibitor compound. The final DMSO concentration was 2% of the total volume. Reactions were monitored as described above.

[1] abbreviates: average, read-out: bDHFR Ki/(μM) avg.
Where [2] appears, read: second part of table, read-out: bDHFR.

Each structure is given as a SMILES string. Values after ≈ are worked out from the molar mass of the structure shown. Where two headings read alike, the source gives them in different places.

For the compound `C[C@H](c1csc2ccccc12)N(CC1CC1)c1ncc2c(N)nc(N)nc2n1` [Compound 59], in the assay with S. aureus, the MIC amounted to 2 µg/mL (≈ 5.11 µM). Besides, the Ki at bacterial DHFR (bDHFR) (setting [1]) was found to be 0.005 µM.

For the compound `CC(c1ccc(Cl)c2ccccc12)N(C)c1ncc2c(N)nc(N)nc2n1` (stereo not shown) [Compound 30], the MIC in the assay with S. aureus is < 0.125 µg/mL. Moreover, the Ki on bacterial DHFR (bDHFR) (setting [1]) was determined as 0.028 µM; at bacterial DHFR (bDHFR) (setting [2]), 0.024 µM.

As to `CCCC(c1cccc2ccccc12)N(C)c1ncc2c(N)nc(N)nc2n1` (stereo not shown) [Compound 43], the MIC in the assay on S. aureus is < 0.125 µg/mL. Further, the Ki on bacterial DHFR (bDHFR) (setting [1]) worked out at 0.004 µM.

For the compound `Cc1ccc(C(C)N(CC2CC2)c2ncc3c(N)nc(N)nc3n2)c2ccccc12` (stereo not shown) [Compound 52], the MIC with S. aureus was 2 µg/mL (≈ 5.01 µM). Besides, the Ki on bacterial DHFR (bDHFR) (setting [1]) was 0.022 µM.

With `CC(c1cc(Cl)cc2ccccc12)N(C)c1ncc2c(N)nc(N)nc2n1` (stereo not shown) [Compound 35], the MIC with S. aureus was determined as 0.5 µg/mL (≈ 1.32 µM). For the same compound, the Ki on bacterial DHFR (bDHFR) (setting [1]) turned out to be 0.037 µM.

In the case of `CCN(c1ncc2c(N)nc(N)nc2n1)C(C)c1ccc(C)c2ccccc12` (stereo not shown) [Compound 50], in the assay on S. aureus, the MIC came to 2 µg/mL (≈ 5.36 µM). Further, at bacterial DHFR (bDHFR) (setting [1]), the Ki was found to be 0.004 µM.

With `Cc1[nH]ncc1CCCN(c1ncc2c(N)nc(N)nc2n1)C(C)c1cccc2ccccc12` (stereo not shown) [Compound 51], the MIC in the assay with S. aureus is 2 µg/mL (≈ 4.41 µM). In addition, the Ki on bacterial DHFR (bDHFR) (setting [1]) came to 0.022 µM.

As for `CCOc1ccc2ccccc2c1CN(C)c1ncc2c(N)nc(N)nc2n1` [Compound 29], the MIC in the assay on S. aureus was < 0.125 µg/mL. For the same compound, the figures for the Ki on bacterial DHFR (bDHFR) (setting [1]) and at bacterial DHFR (bDHFR) (setting [2]) were 0.02 µM and < 0.02 µM, respectively.

Turning to `CC[C@H](c1cccc2ccccc12)N(C)c1ncc2c(N)nc(N)nc2n1` [Compound 42], the MIC in the assay with S. aureus was < 0.125 µg/mL. Also, the Ki at bacterial DHFR (bDHFR) (setting [1]) is 0.004 µM.

For `CCC(c1cccc2ccccc12)N(C)c1ncc2c(N)nc(N)nc2n1` (single isomer, unassigned) [Compound 41], the MIC in the assay with S. aureus is < 0.125 µg/mL. Besides, the Ki at bacterial DHFR (bDHFR) (setting [1]) amounted to 0.037 µM.

Turning to `CC(c1c2c(cc3ccccc13)CCCC2)N(CC1CC1)c1ncc2c(N)nc(N)nc2n1` (stereo not shown) [Compound 31], the MIC with S. aureus was 1 µg/mL (≈ 2.27 µM). In addition, the Ki on bacterial DHFR (bDHFR) (setting [1]) was 0.024 µM.

Regarding `CC(c1cccc2ccccc12)N(CCc1ccc(Cl)cc1)c1ncc2c(N)nc(N)nc2n1` (stereo not shown) [Compound 57], the MIC in the assay with S. aureus amounted to 2 µg/mL (≈ 4.26 µM). For the same compound, the Ki at bacterial DHFR (bDHFR) (setting [1]) was found to be 0.011 µM.

Turning to `CCCN(Cc1cnc2nc(N)nc(N)c2n1)c1ccccc1` [Compound 61], in the assay with S. aureus, the MIC was determined as 2 µg/mL (≈ 6.46 µM). For the same compound, the Ki at bacterial DHFR (bDHFR) (setting [1]) worked out at 0.013 µM.

For the compound `CCN(c1ncc2c(N)nc(N)nc2n1)C(C)c1cccc2ccccc12` (stereo not shown) [Compound 45], the MIC in the assay on S. aureus is 2 µg/mL (≈ 5.56 µM). Also, the Ki at bacterial DHFR (bDHFR) (setting [1]) turned out to be 0.008 µM.

Turning to `CCC(c1ccc(Cl)c2ccccc12)N(C)c1ncc2c(N)nc(N)nc2n1` (stereo not shown) [Compound 44], in the assay on S. aureus, the MIC is < 0.125 µg/mL. Further, the Ki at bacterial DHFR (bDHFR) (setting [1]) stood at 0.004 µM.

As for `CC(c1ccc(OCc2c(F)cccc2Cl)cc1)N(C)c1ncc2c(N)nc(N)nc2n1` (stereo not shown) [Compound 48], in the assay with S. aureus, the MIC stood at 2 µg/mL (≈ 4.41 µM). In addition, on bacterial DHFR (bDHFR) (setting [1]), the Ki worked out at 0.007 µM.

As for `CCN(c1ncc2c(N)nc(N)nc2n1)[C@H](C)c1ccc(C)c2ccccc12` [Compound 32], in the assay on S. aureus, the MIC amounted to 0.5 µg/mL (≈ 1.34 µM). Moreover, at bacterial DHFR (bDHFR) (setting [1]), the Ki came out at 0.011 µM.

As to `Nc1nc(N)c2nc(CNc3ccc(Cl)c4ccccc34)cnc2n1` [Compound 63], the Ki on bacterial DHFR (bDHFR) (setting [2]) worked out at 0.104 µM.

As for `CCC(c1cccc2ccccc12)N(C)c1ncc2c(N)nc(N)nc2n1` (stereo not shown) [Compound 33], the MIC in the assay on S. aureus stood at 0.015 µg/mL (≈ 0.0417 µM). Further, the Ki was 0.012 µM on bacterial DHFR (bDHFR) (bDHFR Ki/(μM) avg, average) and 0.012 µM at bacterial DHFR (bDHFR) (setting [2]).

On to `CC(c1ccnc2ccccc12)N(C)c1ncc2c(N)nc(N)nc2n1` (stereo not shown) [Compound 39], for which, in the assay with S. aureus, the MIC worked out at 0.25 µg/mL (≈ 0.722 µM). Besides, the Ki on bacterial DHFR (bDHFR) (setting [1]) stood at 0.015 µM.

In the case of `C=CCN(Cc1cnc2nc(N)nc(N)c2n1)c1ccccc1` [Compound 46], the MIC with S. aureus is 2 µg/mL (≈ 6.51 µM). Moreover, the Ki on bacterial DHFR (bDHFR) (setting [1]) was 0.093 µM.

Regarding `C[C@@H](c1ccc(F)c2ccccc12)N(C)c1ncc2c(N)nc(N)nc2n1` [Compound 38], the MIC in the assay with S. aureus came out at 0.5 µg/mL (≈ 1.38 µM). Also, the Ki at bacterial DHFR (bDHFR) (setting [1]) is 0.06 µM.

`CC(c1ccc(F)c2ccccc12)N(C)c1ncc2c(N)nc(N)nc2n1` (stereo not shown) [Compound 23]: the MIC in the assay with S. aureus was 1 µg/mL (≈ 2.75 µM). Besides, the Ki on bacterial DHFR (bDHFR) (setting [1]) stood at 0.027 µM.

As for `Cc1ccc(C(F)(F)F)cc1NCc1cnc2nc(N)nc(N)c2n1` [Compound 64], at bacterial DHFR (bDHFR) (setting [2]), the Ki turned out to be 0.385 µM.

Source of the values: US20030176436A1, “Novel heterocyclic compounds as selective bacterial DHFR inhibitors and their uses thereof” (priority 2001, published 2003).
